# Molecular target: Beta-3 Adrenergic Receptor (Homo sapiens (Human), UniProt P13945)
# Assay: Homogeneous Time-Resolved Fluorescence (HTRF) cAMP antagonist assay, IC50 determination
# Format: cell-based
# Settings: CHO-K1 cells stably expressing recombinant receptor, isoproterenol at EC90
# How it was run: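 In this functional readout, recombinant CHO-K1 cells received compound, then isoproterenol at its EC90. After 1 h at room temperature, cAMP levels were determined by HTRF using an on-plate standard curve, and IC50 values were fitted.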
# Sequence of Beta-3 Adrenergic Receptor (P13945 whole entry, species assumed): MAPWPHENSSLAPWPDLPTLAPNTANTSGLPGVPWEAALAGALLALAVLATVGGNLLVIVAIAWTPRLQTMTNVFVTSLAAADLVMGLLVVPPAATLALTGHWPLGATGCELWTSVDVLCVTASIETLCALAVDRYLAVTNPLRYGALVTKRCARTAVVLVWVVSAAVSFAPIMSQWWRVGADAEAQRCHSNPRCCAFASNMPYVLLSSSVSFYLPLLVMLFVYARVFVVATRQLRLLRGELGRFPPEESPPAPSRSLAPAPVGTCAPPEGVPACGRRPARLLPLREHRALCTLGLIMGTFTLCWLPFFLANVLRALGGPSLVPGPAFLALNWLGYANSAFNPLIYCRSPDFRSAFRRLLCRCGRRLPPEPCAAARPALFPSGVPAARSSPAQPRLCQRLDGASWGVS
row,IC50 [nM],Compound
1,41,"CCNS(=O)(=O)c1cccc(OC[C@@H](O)CNC2COC3(CCN(S(=O)(=O)c4cccc(-c5cnn(CC)c5)c4)CC3)C2)c1 (stereo partly drawn) [Compound 209, N-ethyl-3-((2S)-3-(8-(3-(1-ethyl-1H-pyrazol-4-yl)phenylsulfonyl)-1-oxa-8-azaspiro[4.5]decan-3-ylamino)-2-hydroxypropoxy)benzenesulfonamide]"
2,20.4,"CCNS(=O)(=O)c1cccc(OC[C@@H](O)CNC2COC3(CCN(S(=O)(=O)c4cccc(-c5ccc(CN)cc5)c4)CC3)C2)c1 (stereo partly drawn) [Compound 210, 3-((2S)-3-(8-(4′-(aminomethyl)biphenyl-3-ylsulfonyl)-1-oxa-8-azaspiro[4.5]decan-3-ylamino)-2-hydroxypropoxy)-N-ethylbenzenesulfonamide]"
3,16.5,"CCNS(=O)(=O)c1cccc(OC[C@@H](O)CNC2COC3(CCN(S(=O)(=O)c4cccc(-c5ccc(S(N)(=O)=O)cc5)c4)CC3)C2)c1 (stereo partly drawn) [Compound 211, 3′-(3-((S)-3-(3-(N-ethylsulfamoyl)phenoxy)-2-hydroxypropylamino)-1-oxa-8-azaspiro[4.5]decan-8-ylsulfonyl)biphenyl-4-sulfonamide]"
4,13.6,"CCNS(=O)(=O)c1cccc(OC[C@@H](O)CNC2COC3(CCN(S(=O)(=O)c4cccc(-c5ccc(N)nc5)c4)CC3)C2)c1 (stereo partly drawn) [Compound 212, 3-((2S)-3-(8-(3-(6-aminopyridin-3-yl)phenylsulfonyl)-1-oxa-8-azaspiro[4.5]decan-3-ylamino)-2-hydroxypropoxy)-N-ethylbenzenesulfonamide]"
5,49.1,"CCNS(=O)(=O)c1cccc(OC[C@@H](O)CNC2COC3(CCN(S(=O)(=O)c4cccc(-c5ccc(OCC#N)cc5)c4)CC3)C2)c1 (stereo partly drawn) [Compound 213, 3-((2S)-3-(8-(4′-(cyanomethoxy)biphenyl-3-ylsulfonyl)-1-oxa-8-azaspiro[4.5]decan-3-ylamino)-2-hydroxypropoxy)-N-ethylbenzenesulfonamide]"
6,31.4,"CCNS(=O)(=O)c1cccc(OC[C@@H](O)CNC2COC3(CCN(S(=O)(=O)c4cccc(-c5ccc(CC#N)cc5)c4)CC3)C2)c1 (stereo partly drawn) [Compound 214, 3-((2S)-3-(8-(4′-(cyanomethyl)biphenyl-3-ylsulfonyl)-1-oxa-8-azaspiro[4.5]decan-3-ylamino)-2-hydroxypropoxy)-N-ethylbenzenesulfonamide]"
7,7.41,"CNS(=O)(=O)c1cccc(OC[C@@H](O)CN[C@H]2COC3(CCN(S(=O)(=O)c4cccc(-c5cnn(C)c5)c4)CC3)C2)c1 [Compound 215, 3-((S)-2-hydroxy-3-((R)-8-(3-(1-methyl-1H-pyrazol-4-yl)phenylsulfonyl)-1-oxa-8-azaspiro[4.5]decan-3-ylamino)propoxy)-N-methylbenzenesulfonamide]"
8,57.7,"CNS(=O)(=O)c1cccc(OC[C@@H](O)CN[C@@H]2COC3(CCN(S(=O)(=O)c4cccc(-c5cnn(C)c5)c4)CC3)C2)c1 [Compound 216, 3-((S)-2-hydroxy-3-((S)-8-(3-(1-methyl-1H-pyrazol-4-yl)phenylsulfonyl)-1-oxa-8-azaspiro[4.5]decan-3-ylamino)propoxy)-N-methylbenzenesulfonamide]"
9,35.1,"CNS(=O)(=O)c1cccc(OC[C@@H](O)CNC2COC3(CCN(S(=O)(=O)c4cc(C#N)ccc4C)CC3)C2)c1 (stereo partly drawn) [Compound 217, 3-((2S)-3-(8-(5-cyano-2-methylphenylsulfonyl)-1-oxa-8-azaspiro[4.5]decan-3-ylamino)-2-hydroxypropoxy)-N-methylbenzenesulfonamide]"
10,39.3,"CNS(=O)(=O)c1cccc(OC[C@@H](O)CNC2COC3(CCN(S(=O)(=O)c4ccc(C)c(Br)c4)CC3)C2)c1 (stereo partly drawn) [Compound 218, 3-((2S)-3-(8-(3-bromo-4-methylphenylsulfonyl)-1-oxa-8-azaspiro[4.5]decan-3-ylamino)-2-hydroxypropoxy)-N-methylbenzenesulfonamide]"
11,25.3,"CNS(=O)(=O)c1cccc(OC[C@@H](O)CNC2COC3(CCN(S(=O)(=O)c4cc(C)cc(Br)c4)CC3)C2)c1 (stereo partly drawn) [Compound 219, 3-((2S)-3-(8-(3-bromo-5-methylphenylsulfonyl)-1-oxa-8-azaspiro[4.5]decan-3-ylamino)-2-hydroxypropoxy)-N-methylbenzenesulfonamide]"
12,19.1,"CNS(=O)(=O)c1cccc(OC[C@@H](O)CNC2COC3(CCN(S(=O)(=O)c4cc(Br)ccc4OC)CC3)C2)c1 (stereo partly drawn) [Compound 220, 3-((2S)-3-(8-(5-bromo-2-methoxyphenylsulfonyl)-1-oxa-8-azaspiro[4.5]decan-3-ylamino)-2-hydroxypropoxy)-N-methylbenzenesulfonamide]"
13,9.58,"CNS(=O)(=O)c1cccc(OC[C@@H](O)CNC2COC3(CCN(S(=O)(=O)c4ccc5c(ccn5C)c4)CC3)C2)c1 (stereo partly drawn) [Compound 221, 3-((2S)-2-hydroxy-3-(8-(1-methyl-1H-indol-5-ylsulfonyl)-1-oxa-8-azaspiro[4.5]decan-3-ylamino)propoxy)-N-methylbenzenesulfonamide]"
14,109,"CNS(=O)(=O)c1cccc(OC[C@@H](O)CNC2COC3(CCN(S(=O)(=O)c4ccc(OC)c5c4CCCC5)CC3)C2)c1 (stereo partly drawn) [Compound 222, 3-((2S)-2-hydroxy-3-(8-(4-methoxy-5,6,7,8-tetrahydronaphthalen-1-ylsulfonyl)-1-oxa-8-azaspiro[4.5]decan-3-ylamino)propoxy)-N-methylbenzenesulfonamide]"
15,13.6,"CNS(=O)(=O)c1cccc(OC[C@@H](O)CNC2COC3(CCN(S(=O)(=O)c4ccc5c(Cl)cccc5c4)CC3)C2)c1 (stereo partly drawn) [Compound 223, 3-((2S)-3-(8-(5-chloronaphthalen-2-ylsulfonyl)-1-oxa-8-azaspiro[4.5]decan-3-ylamino)-2-hydroxypropoxy)-N-methylbenzenesulfonamide]"
16,33.1,"CCNS(=O)(=O)c1cccc(OC[C@@H](O)CNC2COC3(CCN(S(=O)(=O)c4cccc(Cl)c4)CC3)C2)c1 (stereo partly drawn) [Compound 224, 3-((2S)-3-(8-(3-chlorophenylsulfonyl)-1-oxa-8-azaspiro[4.5]decan-3-ylamino)-2-hydroxypropoxy)-N-ethylbenzenesulfonamide]"
17,186,"CCNS(=O)(=O)c1cccc(OC[C@@H](O)CNC2COC3(CCN(S(=O)(=O)c4ccc(OC)c(C)c4)CC3)C2)c1 (stereo partly drawn) [Compound 225, N-ethyl-3-((2S)-2-hydroxy-3-(8-(4-methoxy-3-methylphenylsulfonyl)-1-oxa-8-azaspiro[4.5]decan-3-ylamino)propoxy)benzenesulfonamide]"
18,155,"CCNS(=O)(=O)c1cccc(OC[C@@H](O)CNC2COC3(CCN(S(=O)(=O)c4cc(C)ccc4F)CC3)C2)c1 (stereo partly drawn) [Compound 226, N-ethyl-3-((2S)-3-(8-(2-fluoro-5-methylphenylsulfonyl)-1-oxa-8-azaspiro[4.5]decan-3-ylamino)-2-hydroxypropoxy)benzenesulfonamide]"
19,31.3,"CCNS(=O)(=O)c1cccc(OC[C@@H](O)CNC2COC3(CCN(S(=O)(=O)c4ccc(Br)c(C)c4)CC3)C2)c1 (stereo partly drawn) [Compound 227, 3-((2S)-3-(8-(4-bromo-3-methylphenylsulfonyl)-1-oxa-8-azaspiro[4.5]decan-3-ylamino)-2-hydroxypropoxy)-N-ethylbenzenesulfonamide]"
20,24.2,"CCNS(=O)(=O)c1cccc(OC[C@@H](O)CNC2COC3(CCN(S(=O)(=O)c4ccc5c(c4)NC(=O)CO5)CC3)C2)c1 (stereo partly drawn) [Compound 228, N-ethyl-3-((2S)-2-hydroxy-3-(8-(3-oxo-3,4-dihydro-2H-benzo[b][1,4]oxazin-6-ylsulfonyl)-1-oxa-8-azaspiro[4.5]decan-3-ylamino)propoxy)benzenesulfonamide]"
21,272,"CCNS(=O)(=O)c1cccc(OC[C@@H](O)CNC2COC3(CCN(S(=O)(=O)c4ccc5nsnc5c4)CC3)C2)c1 (stereo partly drawn) [Compound 229, 3-((2S)-3-(8-(benzo[c][1,2,5]thiadiazol-5-ylsulfonyl)-1-oxa-8-azaspiro[4.5]decan-3-ylamino)-2-hydroxypropoxy)-N-ethylbenzenesulfonamide]"
22,85.4,"CCNS(=O)(=O)c1cccc(OC[C@@H](O)CNC2COC3(CCN(S(=O)(=O)c4cnn(-c5ccccc5)c4C)CC3)C2)c1 (stereo partly drawn) [Compound 230, N-ethyl-3-((2S)-2-hydroxy-3-(8-(5-methyl-1-phenyl-1H-pyrazol-4-ylsulfonyl)-1-oxa-8-azaspiro[4.5]decan-3-ylamino)propoxy)benzenesulfonamide]"
23,72.6,"CCNS(=O)(=O)c1cccc(OC[C@@H](O)CNC2COC3(CCN(S(=O)(=O)c4ccc5c(c4)CCCC5)CC3)C2)c1 (stereo partly drawn) [Compound 231, N-ethyl-3-((2S)-2-hydroxy-3-(8-(5,6,7,8-tetrahydronaphthalen-2-ylsulfonyl)-1-oxa-8-azaspiro[4.5]decan-3-ylamino)propoxy)benzenesulfonamide]"
24,188,"CCNS(=O)(=O)c1cccc(OC[C@@H](O)CNC2COC3(CCN(S(=O)(=O)c4c(C)noc4C)CC3)C2)c1 (stereo partly drawn) [Compound 232, 3-((2S)-3-(8-(3,5-dimethylisoxazol-4-ylsulfonyl)-1-oxa-8-azaspiro[4.5]decan-3-ylamino)-2-hydroxypropoxy)-N-ethylbenzenesulfonamide]"
25,156,"CCNS(=O)(=O)c1cccc(OC[C@@H](O)CNC2COC3(CCN(S(=O)(=O)c4ccc(-c5ccccc5)s4)CC3)C2)c1 (stereo partly drawn) [Compound 233, N-ethyl-3-((2S)-2-hydroxy-3-(8-(5-phenylthiophen-2-ylsulfonyl)-1-oxa-8-azaspiro[4.5]decan-3-ylamino)propoxy)benzenesulfonamide]"
26,52.6,"CCNS(=O)(=O)c1cccc(OC[C@@H](O)CNC2COC3(CCN(S(=O)(=O)c4ccc5c(c4)N(C)CCO5)CC3)C2)c1 (stereo partly drawn) [Compound 234, N-ethyl-3-((2S)-2-hydroxy-3-(8-(4-methyl-3,4-dihydro-2H-benzo[b][1,4]oxazin-6-ylsulfonyl)-1-oxa-8-azaspiro[4.5]decan-3-ylamino)propoxy)benzenesulfonamide]"

# From patent US11987588B2, “Modulators of the beta-3 adrenergic receptor useful for the treatment or prevention of heart failure and disorders related thereto” (Arena Pharmaceuticals, Inc., priority 2017, dated 2024)
